We go through three compounds from ChEMBL document CHEMBL3861942 (Medchemcomm, 2016).

Structures are written as SMILES. Calls of active or inactive are those of the source. No cut-off for these calls is given here.

As a reminder, the IC50 is the concentration needed to halve the response being measured.

A short description of experiment [1]: (§1) Cytotoxicity against human HeLa cells assessed as decrease in cell viability after 24 hrs by MTT assay. It is filed as functional, cell-based.
Experiment [2] is described as follows: (§2) Cytotoxicity against human A549 cells assessed as decrease in cell viability after 24 hrs by MTT assay. In kind it is functional, cell-based. Particulars: A549, 24 h.
A short description of experiment [3]: Cell cycle arrest in human A549 cells assessed as accumulation at S phase at 100 uM by propidium iodide staining-based flow cytometric analysis (reference value: 8.9 +/- 0.6%). In kind it is functional. Background: A flow cytometer gives signals particle by particle.
The test system of experiment [4] is A549. Briefly: Induction of apoptosis in human A549 cells assessed as appearance of crescent or granular shape nucleus on one side of the cell at 10 to 100 uM after 24 hrs by acridine orange/ethidium bromide staining-based fluorescence microscopy. It is filed as functional.
A short description of experiment [5]: Cell cycle arrest in human A549 cells assessed as accumulation at G1 phase at 100 uM by propidium iodide staining-based flow cytometric analysis (reference value: 66.2 +/- 1.5%). In kind it is functional.
In experiment [6] the test system is A549. Briefly: Induction of apoptosis in human A549 cells assessed as appearance of concentrated and asymmetrically localized nucleus at 10 to 100 uM after 24 hrs by acridine orange/ethidium bromide staining-based fluorescence microscopy. It is filed as functional, cell-based.
Experiment [7] can be described thus: Cell cycle arrest in human A549 cells assessed as accumulation at G1 phase at 10 uM by propidium iodide staining-based flow cytometric analysis (reference value: 66.2 +/- 1.5%). In kind it is functional.
Experiment [8] deals with HeLa. Briefly: Induction of apoptosis in human HeLa cells assessed as appearance of concentrated and asymmetrically localized nucleus at 10 to 100 uM after 24 hrs by acridine orange/ethidium bromide staining-based fluorescence microscopy. It is filed as functional, cell-based.
The nature of experiment [9]: Cell cycle arrest in human A549 cells assessed as accumulation at G2/M phase at 100 uM by propidium iodide staining-based flow cytometric analysis (reference value: 23.5 +/- 1%). In kind it is functional.
The nature of experiment [10]: Cell cycle arrest in human A549 cells assessed as accumulation at sub G0 phase at 100 uM by propidium iodide staining-based flow cytometric analysis (reference value: 0.866 +/- 0.03%). It is filed as functional.
The test system of experiment [11] is HeLa. The experiment is described as §1. It is filed as functional, cell-based.
Experiment [12] can be described thus: Cell cycle arrest in human HeLa cells assessed as accumulation at sub G0 phase at 100 uM by propidium iodide staining-based flow cytometric analysis (reference value: 1.05 +/- 0.2%). In kind it is functional.
Experiment [13] is described as follows: Cell cycle arrest in human HeLa cells assessed as accumulation at G1 phase at 100 uM by propidium iodide staining-based flow cytometric analysis (reference value: 42 +/- 1.8%). In kind it is functional.
Experiment [14] can be described thus: Cell cycle arrest in human HeLa cells assessed as accumulation at S phase at 100 uM by propidium iodide staining-based flow cytometric analysis (reference value: 6.7 +/- 0.3%). In kind it is functional.
Experiment [15] can be described thus: Cell cycle arrest in human A549 cells assessed as accumulation at G2/M phase at 10 uM by propidium iodide staining-based flow cytometric analysis (reference value: 23.5 +/- 1%). In kind it is functional.
Experiment [16] in a line: Cell cycle arrest in human HeLa cells assessed as accumulation at S phase at 10 uM by propidium iodide staining-based flow cytometric analysis (reference value: 6.7 +/- 0.3%). In kind it is functional.
A short description of experiment [17]: Cell cycle arrest in human A549 cells assessed as accumulation at sub G0 phase at 10 uM by propidium iodide staining-based flow cytometric analysis (reference value: 0.866 +/- 0.03%). It is filed as functional.
The nature of experiment [18]: Cell cycle arrest in human HeLa cells assessed as accumulation at sub G0 phase at 10 uM by propidium iodide staining-based flow cytometric analysis (reference value: 1.05 +/- 0.2%). In kind it is functional.
Experiment [19] is described as follows: Cell cycle arrest in human HeLa cells assessed as accumulation at G1 phase at 10 uM by propidium iodide staining-based flow cytometric analysis (reference value: 42 +/- 1.8%). It is filed as functional.
A short description of experiment [20]: Cell cycle arrest in human HeLa cells assessed as accumulation at G2/M phase at 10 uM by propidium iodide staining-based flow cytometric analysis (reference value: 47.1 +/- 1.2%). It is filed as functional.
In experiment [21] the test system is A549. The description is as §2. It is filed as functional, cell-based.
The nature of experiment [22]: Cell cycle arrest in human A549 cells assessed as accumulation at S phase at 10 uM by propidium iodide staining-based flow cytometric analysis (reference value: 8.9 +/- 0.6%). In kind it is functional.
A short description of experiment [23]: Cell cycle arrest in human HeLa cells assessed as accumulation at G2/M phase at 100 uM by propidium iodide staining-based flow cytometric analysis (reference value: 47.1 +/- 1.2%). In kind it is functional.

Take `CC[C@]1(O)C[C@H]2CN(CCc3c([nH]c4ccccc34)[C@@](C(=O)OC)(c3cc4c(cc3OC)N(C=O)[C@H]3[C@@](O)(C(=O)OC)[C@H](OC(C)=O)[C@]5(CC)C=CCN6CC[C@]43[C@@H]65)C2)C1` [VINCRISTINE]: the IC50 in experiment [1] amounted to 4.1 µM; in experiment [2], 0.8 µM.

`CC[C@H](/C=C/[C@@H](C)[C@H]1CC[C@H]2[C@@H]3CC=C4C[C@@H](O)CC[C@]4(C)[C@H]3CC[C@]12C)C(C)C` [STIGMASTEROL]: the Activity in experiment [3] is 9.3%; in experiment [5], 64.9%; in experiment [7], 62.5%; in experiment [9] it was 24.1%; in experiment [10], 0.9%; with HeLa [11], “Dose-dependent effect”. The Activity in experiment [12] came to 1.41%; in [13], 38%; in [14], 7.1%; in experiment [15], 26.5%; in [16], 6.4%; in experiment [17] it was 0.85%. In addition, the Activity was 0.94% in experiment [18]; 39% in experiment [19]; 48.7% in experiment [20]; “Dose-dependent effect” with A549 [21]; 9.6% in experiment [22]; 48.9% in experiment [23]. Further, the result in the experiment with A549 [4], in the experiment with A549 [6] and in the experiment with HeLa [8] was Active. The figures for the concentration for half-maximal inhibition (IC50) in experiment [1] and in [2] were 12.2 µM and 10.4 µM, respectively.

Consider `O=C(O)/C=C/c1ccccc1` [CINNAMIC ACID], for which the Activity is 8.1% in experiment [3]; 65.6% in experiment [5]; 62.7% in [7]; 24.8% in experiment [9]; 0.48% in experiment [10]; “Dose-dependent effect” in the experiment on HeLa [11]. In addition, the Activity in experiment [12] is 14.4%; in experiment [13], 73.3%; in experiment [14] it was 14%; in experiment [15] it was 26.9%; in experiment [16], 28.6%; in [17], 0.54%. The Activity in [18] is 5.8%; in experiment [19], 55.6%; in experiment [20], 7.1%; in the experiment with A549 [21], “Dose-dependent effect”; in experiment [22], 8.3%; in [23], 0.5%. Also, the result in the experiment on A549 [4], with A549 [6] and in the experiment with HeLa [8] was Active. For the same compound, the half-inhibitory concentration (IC50) was 24.8 µM in experiment [1] and 50.2 µM in [2].
